Source: US20240216289A1, “LIPIDOID NANOPARTICLES FOR THE TREATMENT OF DISEASES AND DISORDERS” (Trustees of Tufts College, priority 2021, published 2024)
“Also recorded” adds a separate entry of the source.

Columns and labels:
inguinal lymph nodes = assay: Luc mRNA expression in inguinal lymph nodes after subcutaneous tail-base injection of LNP/mLuc (IVIS); format: in vivo, Balb/c mice; conditions: subcutaneous at tail base, 6 h, bioluminescence
liver [1] = assay: Luc mRNA expression in liver after subcutaneous tail-base injection of LNP/mLuc (IVIS); format: in vivo, Balb/c mice; conditions: subcutaneous at tail base, 6 h, bioluminescence
[2] = system: macrophages and dendritic cells (DCs) in inguinal lymph nodes; assay: Delivery of Cre mRNA to LNs in Ai14 reporter mice (tdTomato positive cells, flow cytometry); format: in vivo; conditions: LNP/Cre mRNA s.c., 48 h; result in words
OVA = assay: ELISA for antibody titer after OVA mRNA vaccination; format: in vivo; conditions: 14 days after second dose
HEK293T cells = assay: 5′UTR and 3′UTR optimization in HEK293T cells (eGFP, flow cytometry); format: cell-based; conditions: LPF2k
Protocol: 5′UTR optimization in HEK293T cells. Prior to transfection, HEK293T cells were seeded on a 48-well plate at 40,000 cells/well, with 500 μL DMEM culture in each well. 6 groups were set with different treatments: Lipofectamine 2000 (LPF2k) only, pcDNA3.0-eGFP, pcDNA3.0-NCA7d-eGFP, pcDNA-70nt-eGFP, pcDNA3.0-Ces1d-eGFP and pcDNA3.0-S27a45′-eGFP. LPF2k was complexed each plasmid in equal amount (0.5 μg/0.5 μg) before being added to each well. At each time point (36 hrs, 60 hrs, 84 hrs and 108 hrs), cells were washed with PBS and then treated with 500 μL 0.25% Typsine-EDTA 10 (Gibco) for 3 min. Resuspended cells were applied to the Attune NxT Flow Cytometer (Thermo Fisher) directly (FIG. 10).
3′UTR optimization in HEK293T cell. Similar to 5′UTR optimization, thirteen 3′UTRs modified pcDNA3.0-Ces1d-eGFP and pcDNA3.0-70nt-eGFP were encapsulated in LPF2k at a 1:1 weight ratio and then transfected into HEK293T cells. At each time point (48 hrs, 72 hrs, 96 hrs and 120 hrs), cells were washed with PBS and then treated with 500 μL 0.25% Typsine-EDTA (Gibco) for 3 min. Resuspended cell were applied to the Attune NxT Flow Cytometer (Thermo Fisher) directly (FIG. 11).

liver [3] = assay: Mouse liver-directed 3′UTR and cap screening in mRNA format (L88 LNP, IVIS); format: in vivo, BALB/c mice; conditions: Lipid 88 delivery, 0.2 mg/kg IV
Protocol: Mouse liver-directed 3′UTR screening in mRNA format. 6-week-old female BALB/c mice were used for in vivo modified Fluc-eGFP mRNA screening with L88 LNP delivery. Each UTRs modified Fluc-eGFP mRNA were encapsulated in an optimal Lipid 88 formulation (L88:Chol:DOPC:DMG-PEG=16:4:2:1, w w) at the weight ratio of 1:10 in PBS solution (RNase-free). The L88/Fluc-eGFP mRNA complex was intravenously injected into the mice at a mRNA dose of 0.2 mg/kg. At each preset time point, mice were injected with 100 μL of D-Luciferin potassium salt (GoldBio) solution (15 mg/mL in PBS), anesthetized under isoflurane anesthesia, and evaluated using IVIS imaging system (Caliper Life Sciences, US).

[4] = system: IFN γ and IL-4 positive T cells; assay: IFN γ and IL-4 ELISpot after S protein mRNA vaccination; format: in vivo, mice; conditions: spleen day 28
Protocol: The blood and spleen were collected at day 28 for further analysis.
The T cell response after the vaccination was analyzed by IFN γ and IL-4 ELISpot (FIGS. 5A-C).
The T cell response after vaccination was tested by ELISpot assay.

## CCCCCCCCC(CCCCCC)C(=O)OCCCCCCN(CCCCO)CCCCCCOC(=O)C(CCCCCC)CCCCCCCC (stereo not shown) [ALC-0315]
Inguinal lymph nodes
  Luc mRNA expression in inguinal (draining) lymph nodes: obvious signal in draining LNs
Liver [1]
  Luc mRNA expression in liver: significantly increased expression of Luc in liver; also recorded: significantly higher expression in liver
[2]
  transfection of cells in inguinal lymph nodes: less efficacy compared with 113-F2 LNP; also recorded: successfully delivered Cre mRNA to antigen-presenting cells (APC)
OVA
  antibody response (total IgG, IgG1, IgG2c): peak antibody level

## Apolipoprotein A-II
HEK293T cells; 48-120 hrs
  eGFP expression, 3′UTR in pcDNA3.0-70nt-eGFP: top-performing 3′UTR candidates
Liver [3]
  ARCA capped 70nt-Fluc-eGFP mRNA Fluc expression in the liver: highest Fluc expression in the liver relative to other eight 3′UTR modifications

## Pam3CSK4
Inguinal lymph nodes
  Luc mRNA expression in inguinal (draining) lymph nodes: decreased the mRNA expression in draining lymph nodes
[2]
  transfection of cells in inguinal lymph nodes: decreased the transfection efficacy
[4]
  IL-4 positive T cells (ELISpot): increased the Th1 T cell response and percentage of IL-4 secreting T cells; also recorded: significantly induced IL-4 secreting T cells compared with all other groups

B1: Ces1d: 5′UTR fragment, sequence in Table 1 (nucleic acid)
DNA: CCACTAGTTCTAGAGGTACCTTGGACCCTCGTACAGAAGCTAATACGACTCACTATAAGGAGGCGGGTCCCCTGGTCCACAACAGAAGCATTGCTAAAGCAGCAGATAGCTCAGAGACCCACAGAGCCCTTGTCCTTCCACAGAATTCGCCACCATGGAAGA
HEK293T cells; 36-108 hrs
  eGFP expression, 5′UTR in pcDNA3.0-eGFP: top-performing 5′UTR candidates
